PubChem BioAssay AID2060884 (Molecular Pharmacology Branch, DTP, NCI, 2025)
pIC50: −log10 of the molar value.

Tested on: NCI-H929 complex spheroids, viability % test/control
Assay: Anticancer human tumor NCI-H929 cell line growth inhibition [RAS];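 also: compound exposure lasted seven days before viability was read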;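 as to viability, T/C: 100% = DMSO vehicle control viability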
Conditions: for pIC50: curve of first compound; for viability, T/C: stronger effect = lower value
Method in brief: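 Agents were tested in combination matrices in half-log decrements from a top concentration at or near clinical Cmax (10 microM if undetermined). Targets were multi-cell spheroids of tumour lines plus HUVEC and MSC stromal cells.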

[1] = second compound 0.0316 µM, first compound 0.00316 µM
[2] = second compound 0.0316 µM, first compound 0.01 µM
[3] = second compound 0.0316 µM, first compound 0.0316 µM
[4] = second compound 0.0316 µM, first compound 0.1 µM
[5] = second compound 0.1 µM, first compound 0.00316 µM
[6] = second compound 0.1 µM, first compound 0.01 µM
[7] = second compound 0.1 µM, first compound 0.0316 µM
[8] = second compound 0.1 µM, first compound 0.1 µM
[9] = second compound 0.316 µM, first compound 0.00316 µM
[10] = second compound 0.316 µM, first compound 0.01 µM
[11] = second compound 0.316 µM, first compound 0.0316 µM
[12] = second compound 0.316 µM, first compound 0.1 µM
[13] = second compound 1 µM, first compound 0.00316 µM
[14] = second compound 1 µM, first compound 0.01 µM
[15] = second compound 1 µM, first compound 0.0316 µM
[16] = second compound 1 µM, first compound 0.1 µM
[17] = second compound 3.16 µM, first compound 0.00316 µM
[18] = second compound 3.16 µM, first compound 0.01 µM
[19] = second compound 3.16 µM, first compound 0.0316 µM
[20] = second compound 3.16 µM, first compound 0.1 µM
[21] = second compound 10 µM, first compound 0.00316 µM
[22] = second compound 10 µM, first compound 0.01 µM
[23] = second compound 10 µM, first compound 0.0316 µM
[24] = second compound 10 µM, first compound 0.1 µM

CC(C)n1nc(-c2ccc3oc(N)nc3c2)c2c(N)ncnc21 + C#Cc1c(F)ccc2cc(O)cc(-c3ncc4c(N5CC6CCC(C5)N6)nc(OCC56CCCN5CC(F)C6)nc4c3F)c12
pIC50 (second compound 0.0316 µM): 7.21 | pIC50 (second compound 0.1 µM): 7.21 | pIC50 (second compound 0.316 µM): 7.21 | pIC50 (second compound 1 µM): 7.22 | pIC50 (second compound 3.16 µM): 7.22 | pIC50 (second compound 10 µM): 7.35 | viability, T/C (second compound 0.0316 µM, first compound 0.000316 µM): 96.7% | viability, T/C (second compound 0.0316 µM, first compound 0.001 µM): 97.5% | viability, T/C [1]: 103% | viability, T/C [2]: 112% | viability, T/C [3]: 119% | viability, T/C [4]: 9.44% | viability, T/C (second compound 0.1 µM, first compound 0.000316 µM): 96% | viability, T/C (second compound 0.1 µM, first compound 0.001 µM): 101% | viability, T/C [5]: 105% | viability, T/C [6]: 115% | viability, T/C [7]: 118% | viability, T/C [8]: 8.74% | viability, T/C (second compound 0.316 µM, first compound 0.000316 µM): 96.7% | viability, T/C (second compound 0.316 µM, first compound 0.001 µM): 108% | viability, T/C [9]: 104% | viability, T/C [10]: 113% | viability, T/C [11]: 117% | viability, T/C [12]: 7.88% | viability, T/C (second compound 1 µM, first compound 0.000316 µM): 95% | viability, T/C (second compound 1 µM, first compound 0.001 µM): 99.2% | viability, T/C [13]: 109% | viability, T/C [14]: 112% | viability, T/C [15]: 117% | viability, T/C [16]: 5.23% | viability, T/C (second compound 3.16 µM, first compound 0.000316 µM): 99.5% | viability, T/C (second compound 3.16 µM, first compound 0.001 µM): 101% | viability, T/C [17]: 107% | viability, T/C [18]: 111% | viability, T/C [19]: 112% | viability, T/C [20]: 5.57% | viability, T/C (second compound 10 µM, first compound 0.000316 µM): 101% | viability, T/C (second compound 10 µM, first compound 0.001 µM): 97.2% | viability, T/C [21]: 100% | viability, T/C [22]: 96.6% | viability, T/C [23]: 69.5% | viability, T/C [24]: 4.27%

Nc1ccn(C2OC(CO)C(O)C2(F)F)c(=O)n1 (stereo unspecified) + C#Cc1c(F)ccc2cc(O)cc(-c3ncc4c(N5CC6CCC(C5)N6)nc(OCC56CCCN5CC(F)C6)nc4c3F)c12
pIC50 (second compound 0.0316 µM): 7.74 | pIC50 (second compound 0.1 µM): 7.73 | pIC50 (second compound 0.316 µM): 7.73 | pIC50 (second compound 1 µM): 7.74 | pIC50 (second compound 3.16 µM): 7.73 | pIC50 (second compound 10 µM): 7.75 | viability, T/C [1]: 97.9% | viability, T/C [2]: 106% | viability, T/C [3]: 1.73% | viability, T/C [4]: 1.71% | viability, T/C (second compound 0.0316 µM, first compound 0.316 µM): 1.77% | viability, T/C (second compound 0.0316 µM, first compound 1 µM): 0.97% | viability, T/C [5]: 99.5% | viability, T/C [6]: 111% | viability, T/C [7]: 2.14% | viability, T/C [8]: 1.9% | viability, T/C (second compound 0.1 µM, first compound 0.316 µM): 0.95% | viability, T/C (second compound 0.1 µM, first compound 1 µM): 1.51% | viability, T/C [9]: 102% | viability, T/C [10]: 106% | viability, T/C [11]: 2.97% | viability, T/C [12]: 2.03% | viability, T/C (second compound 0.316 µM, first compound 0.316 µM): 1.39% | viability, T/C (second compound 0.316 µM, first compound 1 µM): 1.19% | viability, T/C [13]: 97.4% | viability, T/C [14]: 105% | viability, T/C [15]: 1.48% | viability, T/C [16]: 1.24% | viability, T/C (second compound 1 µM, first compound 0.316 µM): 0.95% | viability, T/C (second compound 1 µM, first compound 1 µM): 0.85% | viability, T/C [17]: 97.4% | viability, T/C [18]: 108% | viability, T/C [19]: 3.7% | viability, T/C [20]: 1.57% | viability, T/C (second compound 3.16 µM, first compound 0.316 µM): 1.67% | viability, T/C (second compound 3.16 µM, first compound 1 µM): 1.18% | viability, T/C [21]: 102% | viability, T/C [22]: 97.2% | viability, T/C [23]: 2.56% | viability, T/C [24]: 1.28% | viability, T/C (second compound 10 µM, first compound 0.316 µM): 1.24% | viability, T/C (second compound 10 µM, first compound 1 µM): 0.87%

CC1(C)CCC(Nc2ncc(C(F)(F)F)c(-c3c[nH]c4c(P(C)(C)=O)c(C#N)ccc34)n2)CN1 (stereo unspecified) + C#Cc1c(F)ccc2cc(O)cc(-c3ncc4c(N5CC6CCC(C5)N6)nc(OCC56CCCN5CC(F)C6)nc4c3F)c12
pIC50 (second compound 0.0316 µM): 8.22 | pIC50 (second compound 0.1 µM): 8.18 | pIC50 (second compound 0.316 µM): 8.18 | pIC50 (second compound 1 µM): 8.18 | pIC50 (second compound 3.16 µM): 8.17 | pIC50 (second compound 10 µM): 8.17 | viability, T/C (second compound 0.0316 µM, first compound 0.000949 µM): 129% | viability, T/C (second compound 0.0316 µM, first compound 0.003 µM): 98.5% | viability, T/C (second compound 0.0316 µM, first compound 0.00949 µM): 17.9% | viability, T/C (second compound 0.0316 µM, first compound 0.03 µM): 12.8% | viability, T/C (second compound 0.0316 µM, first compound 0.0949 µM): 8.56% | viability, T/C (second compound 0.0316 µM, first compound 0.3 µM): 5.72% | viability, T/C (second compound 0.1 µM, first compound 0.000949 µM): 124% | viability, T/C (second compound 0.1 µM, first compound 0.003 µM): 116% | viability, T/C (second compound 0.1 µM, first compound 0.00949 µM): 18.6% | viability, T/C (second compound 0.1 µM, first compound 0.03 µM): 13.8% | viability, T/C (second compound 0.1 µM, first compound 0.0949 µM): 8.47% | viability, T/C (second compound 0.1 µM, first compound 0.3 µM): 5.88% | viability, T/C (second compound 0.316 µM, first compound 0.000949 µM): 127% | viability, T/C (second compound 0.316 µM, first compound 0.003 µM): 114% | viability, T/C (second compound 0.316 µM, first compound 0.00949 µM): 19.6% | viability, T/C (second compound 0.316 µM, first compound 0.03 µM): 18% | viability, T/C (second compound 0.316 µM, first compound 0.0949 µM): 8.37% | viability, T/C (second compound 0.316 µM, first compound 0.3 µM): 5.86% | viability, T/C (second compound 1 µM, first compound 0.000949 µM): 121% | viability, T/C (second compound 1 µM, first compound 0.003 µM): 112% | viability, T/C (second compound 1 µM, first compound 0.00949 µM): 19.3% | viability, T/C (second compound 1 µM, first compound 0.03 µM): 48.8% | viability, T/C (second compound 1 µM, first compound 0.0949 µM): 9.11% | viability, T/C (second compound 1 µM, first compound 0.3 µM): 5.75% | viability, T/C (second compound 3.16 µM, first compound 0.000949 µM): 127% | viability, T/C (second compound 3.16 µM, first compound 0.003 µM): 118% | viability, T/C (second compound 3.16 µM, first compound 0.00949 µM): 22.1% | viability, T/C (second compound 3.16 µM, first compound 0.03 µM): 22.5% | viability, T/C (second compound 3.16 µM, first compound 0.0949 µM): 9.71% | viability, T/C (second compound 3.16 µM, first compound 0.3 µM): 6.25% | viability, T/C (second compound 10 µM, first compound 0.000949 µM): 125% | viability, T/C (second compound 10 µM, first compound 0.003 µM): 104% | viability, T/C (second compound 10 µM, first compound 0.00949 µM): 23.3% | viability, T/C (second compound 10 µM, first compound 0.03 µM): 63.5% | viability, T/C (second compound 10 µM, first compound 0.0949 µM): 14.7% | viability, T/C (second compound 10 µM, first compound 0.3 µM): 10.9%
